# Test results as given in patent US9181172B2, “Rhein conjugates, preparation method thereof and their uses in producing medicines for treating diabetic nephrosis, intestinal adhesion and osteoarthritis” (priority 2005, dated 2015).
# Experiments:
# Type in all cases: in vivo
# rats [1] = test: Carrageenan-induced acute pleurisy exudation and leukoplania in rats; conditions: intraperitoneal 10 mg/kg, four hours after carrageenan
# Method: Forty male rats of 200±20 g weight were selected and divided into five groups, namely, model control group, indomethacin group, rhein sodium group, rhein glucosamine large dose group and small dose group. Eight rats for each group. The rats were administered with medicines by intraperitoneal administration, one hour later, the rats were induced with acute pleurisy by carrageenan according to the method in the literature [Xu Shuyun, Methodology in Pharmacological Experiment (the 3rd version): 916]. Four hours later, the rats were killed and the volume of pleural effusion and total white cell count were measured.
# rats [2] = test: Formation of granuloma in rats (arthritis example, test 4); conditions: 10 mg/kg intramuscular, two weeks
# Method: Rats were randomly divided into five groups (model control group, indomethacin group, rhein glucosamine large dose group and small dose group and rhein sodium group). Each group has 10 […]. According to the method in the literature [Xu Shuyun, Methodology in Pharmacological Experiment (the 3rd version): 918], the models were built, and the rats were administered with medicines since the day when starting operations. […] Two weeks later, the rats were killed and test was carried on according to the method in the literature. The net weight of granulation was calculated, and t test was used for the intergroup comparison.
# rats [3] = test: Formation of cotton ball granuloma in rats (Example 59 Test 2)
# Method: Rats were randomly divided into five groups (model control group, indomethacin group, rhein glucosamine large dose group and low dose group and rhein sodium group). Each group included 10 rats, and built models according to the method in the literature [Xu Shuyun, Methodology in Pharmacological Experiment (the 3rd version): 918]. The rats were administered by medicines from the day when starting the operation. […] The rats were killed in two weeks, and tests were performed according to the methods in the literature, the net weight of granulation was calculated, and t test was used for the intergroup comparison.
# mice [4] = test: Intestinal propulsion in mice; conditions: intravenous injection
# Method: Fifty mice, male, weighting from 18 to 22 g, were randomly divided into five groups, namely, model control group, domperidone group, rhein sodium group, rhein glucosamine large dose group and low dose group.
# Each group has 10 mice respectively. The mice were fasted, but water was not prohibited, and then administered with medicines by intravenous injection. After that, tests were carried on immediately according to the methods in the literature[Xu Shuyun, Methodology in Pharmacological Experiment (the 3rd version): 1313]. The intestinal propulsive rates were calculated, and t test was used for the intergroup comparison.
# [5] = tested on: rabbits' ear marginal veins; test: Safety of hydro-acupuncture injection: irritation of rabbits' ear marginal vein; conditions: slowly into the vein every two days, three times
# Source text: In rabbits' ear marginal vein aseptic operation, rhein sodium salt, rhein arginine conjugates and 0.9% sodium chloride injection liquid were slowly filled into the veins respectively every two days for three consecutive times.
# rats [6] = test: Intestinal adhesion in rats; conditions: for Rating of adhesion degree 0: number of 12 rats with completely no adhesion; for Rating of adhesion degree 0 / Rating of adhesion degree III / Rating of adhesion degree I / Rating of adhesion degree IV / Rating of adhesion degree II: 7th day; for Rating of adhesion degree III: number of 12 rats with more than two adhering zones; for Rating of adhesion degree I: number of 12 rats with one adhering zone; for Rating of adhesion degree IV: number of 12 rats with organs adhering to abdominal wall directly; for Rating of adhesion degree II: number of 12 rats with two adhering zones
# Method: Rats were fasted for 12 h and models were built according to the methods in the literature [Xu Shuyun, Methodology in Pharmacological Experiment (the 3rd version): 1335]. The rats were randomly divided into five groups, namely, model control group, dexamethasone group, rhein sodium group, rhein glucosamine large dose group and low dose group. Each group included 12 rats. […] The rats of the model group were administered with the same volume of NS, while the rats of the positive control group were administered with dexamethasone, administered once every two days, dose: 10 mg/kg. The administration volume was the same as the treatment group. The rats were killed on the 7th day and carried on laparotomy. Adhesion degree was classified and scored respectively. The classification and score of the observed index-adhesion degree can refer to the five-grade classification method prepared by Nair, and determine the classification standard, see Schedule 13. Intestinal adhesion classification adopts Ridit analysis. The test results are as follows (Table 14): […]
# mice [7] = test: Capillary permeability of mice
# Method: Each group has 12 mice, administration: 0.20 ml/10 g. Mice in the model control group were administrated with isovolumic physiologic saline.
compound,measurement,setting,value
COc1ccc2c(c1)c(CC(=O)O)c(C)n2C(=O)c1ccc(Cl)cc1 [indomethacin],Volume of exudation fluid,rats [1],0.26 ± 0.11
same,WBC,rats [1],3.01 ± 1.59 ×109/L
same,Net weight of granulation,rats [2],12.17 ± 2.49 mg
same,net weight of granulation,"rats [3]; 10 mg/kg intramuscular, two weeks",12.21 ± 2.43 mg
Rhein Arginine Conjugate,Propulsive rate,mice [4]; dosage 12 mg/kg,53.81 ± 8.9 %
same,Propulsive rate,mice [4]; dosage 24 mg/kg,66.47 ± 9.7 %
same,biopsy of rabbits' ear marginal vein,[5],"normal without endothelial injuries, thrombosis and other pharmacological change"
same,irritation on rabbits' ear marginal veins,[5]; vs 0.9% sodium chloride,no irritation
same,inhibition of the formation of cotton ball granuloma compared with the model group,"rats [3]; ig, large dose and low dose groups, p<0.01",significant effect on the inhibition
same,abdominal adhesion ratings compared with the control group,"rats [6]; large dose and low dose groups, p<0.05",statistical significances
same,Rating of adhesion degree 0,rats [6]; 6 mg/kg once a day,1
same,Rating of adhesion degree 0,rats [6]; 12 mg/kg once a day,3
same,Rating of adhesion degree III,rats [6]; 6 mg/kg once a day,3
same,Rating of adhesion degree III,rats [6]; 12 mg/kg once a day,2
same,Rating of adhesion degree I,rats [6]; 6 mg/kg once a day,4
same,Rating of adhesion degree I,rats [6]; 12 mg/kg once a day,5
same,Rating of adhesion degree IV,rats [6]; 6 mg/kg once a day,1
same,Rating of adhesion degree IV,rats [6]; 12 mg/kg once a day,0
same,Rating of adhesion degree II,rats [6]; 6 mg/kg once a day,3
same,Rating of adhesion degree II,rats [6]; 12 mg/kg once a day,2
same,absorbance value,mice [7]; dosage 12 mg/kg,0.476 ± 0.096
same,absorbance value,mice [7]; dosage 24 mg/kg,0.455 ± 0.105
